# PubChem BioAssay (NCI)
#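 Grown in 96-well plates, cells were treated for 48 hours with each compound at five concentrations. Insufficient inhibition: endpoint recorded as highest concentration tested. TGI is the concentration that stops growth completely.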
# Legend:
# Assay in all cases: NCI tumour cell line growth inhibition, 48 h
# [1] = test system: A498 renal
# [2] = test system: CCRF-CEM leukemia
# [3] = test system: HCT-116 colon
# [4] = test system: HOP-62 NSCLC
# [5] = test system: HOP-92 NSCLC
# [6] = test system: IGROV1 ovarian
# [7] = test system: K-562 leukemia
# [8] = test system: MOLT-4 leukemia
# [9] = test system: RPMI-8226 leukemia
# [10] = test system: SF-268 CNS
# [11] = test system: SNB-19 CNS
# [12] = test system: U251 CNS
# [13] = test system: UACC-257 melanoma
# [14] = test system: UO-31 renal
# [15] = test system: CAKI-1 renal
# [16] = test system: KM12 colon
# [17] = test system: NCI-H460 lung
# [18] = test system: TK-10 renal
SMILES,TGI [1] [µM],TGI [2] [µM],TGI [3] [µM],TGI [4] [µM],TGI [5] [µM],TGI [6] [µM],TGI [7] [µM],TGI [8] [µM],TGI [9] [µM],TGI [10] [µM],TGI [11] [µM],TGI [12] [µM],TGI [13] [µM],TGI [14] [µM],TGI [15] [µM],TGI [16] [µM],TGI [17] [µM],TGI [18] [µM]
CSc1ccc(NC(=O)C2c3[nH]c4ccccc4c3C3CCC(C(C)(C)C)CC3C2C(=O)O)cc1 (stereo not drawn),35.4,25.8,27.5,32.1,53,51.8,> 100,31.4,58.6,47,80.2,31.8,> 100,61.6,–,–,–,–
C=CCOCn1cc(F)c(=O)[nH]c1=O,> 100,> 100,> 100,> 100,–,> 100,> 100,> 100,> 100,> 100,> 100,–,> 100,> 100,> 100,> 100,> 100,> 100
CC(=O)c1ccccc1NC(=O)C(=O)C(C(=O)c1ccccc1-c1ccccc1)C1OC(=O)c2ccccc21 (stereo not drawn),38.2,> 100,32.5,44.9,–,54.3,> 100,93,> 100,–,58.9,30.3,32.3,32.8,> 100,34.3,35.3,32
Cn1c2ccccc2c2ccc3c(c21)C(=O)C(c1ccccc1)=CC3=O,–,> 100,38.2,> 100,56.2,39.3,> 100,> 100,99.2,> 100,> 100,> 100,> 100,> 100,> 100,> 100,> 100,> 100
COc1ccc(OC)c(NC(=O)C(=O)CC(=O)c2sc(-n3nc(-c4ccccc4)cc3-c3ccccc3)nc2C)c1,> 100,> 100,> 100,> 100,–,> 100,> 100,> 100,> 100,–,> 100,> 100,> 100,> 100,> 100,> 100,> 100,> 100
CC1=NN2C(c3ccc([N+](=O)[O-])cc3)=CSC2=NC(C)(C)C1,> 100,> 100,> 100,> 100,> 100,> 100,> 100,> 100,> 100,> 100,> 100,> 100,> 100,> 100,–,> 100,> 100,> 100
COc1cc([C@@H]2c3cc4c(cc3[C@@H](OC(=O)c3cccc(N)c3)C3COC(=O)[C@@H]32)OCO4)cc(OC)c1O (stereo partly drawn),16.6,> 43,> 100,18,–,> 64.8,> 100,> 59.8,43.9,> 61.1,> 100,22.9,> 77.3,26.4,29.6,> 73.5,20.4,> 100
CC(C)(C)[C@H]1CO[C@]2(c3ccccc3)[C@@H]3C[C@@H]3C(=O)N12,–,–,–,> 100,> 100,> 100,–,–,> 100,> 100,> 100,> 100,> 100,> 100,> 100,> 100,> 100,> 100
CC1(C)Cc2c(oc3ncnc(N)c23)CS1,–,> 100,> 100,> 100,–,> 100,> 100,> 100,> 100,> 100,> 100,> 100,> 100,> 100,> 100,> 100,> 100,–
C(=C\C(Sc1ccccc1)c1ccccc1)/NNC1=NC(c2ccccc2)C(c2ccccc2)=NN1 (stereo not drawn),–,49.5,> 100,> 100,80.7,> 100,38,77.9,45.5,> 100,> 100,> 100,> 100,> 100,> 100,> 100,> 100,> 100
C=CCCCN1CCCC(C)C1=S (stereo not drawn),> 100,> 100,> 100,> 100,> 100,> 100,> 100,> 100,> 100,> 100,> 100,> 100,> 100,> 100,–,> 100,> 100,> 100
CC1(C)c2ccccc2N2O[C@@H]3C(=O)N(c4ccccc4)C(=O)[C@@H]3C21c1ccccc1 (stereo partly drawn),–,> 100,–,> 100,–,> 100,> 100,> 100,> 100,> 100,> 100,–,> 100,> 100,> 100,> 100,–,> 100
